Results published in publication PMC12470104, “The Achilles Heel of Protein Biochemistry: Insolubility of Recombinant Proteins—A Case Study About Producing a Rice Enzyme” (International Journal of Molecular Sciences, 2025).

System: T1, OsAPSE
T1 construct: GH27 42-387, ricin-B-like 498-563, GH-all-beta 563-649; catalytic D226, D282
Assay: discontinuous pNP release assay, A405; Hanes-Woolf and Eadie-Hofstee
Format: biochemical, Oryza sativa subsp. japonica
Details: 50 mM Tris-HCl pH 8, 25 °C; 50 µg/mL enzyme; protein refolded from inclusion bodies (authors suspect suboptimal folding); 1-20 mM substrate, Km extrapolated above tested range

Work on O=[N+]([O-])c1ccc(O[C@H]2O[C@H](CO)[C@H](O)[C@H](O)[C@H]2O)cc1 [pNP-α-D-Galp] yielded a Km of 44 mM.
